According to patent US20030032834A1, “Aminoalcohol derivatives” (priority 2000, published 2003):
Counter-ions that a name gives are not always drawn.

System: increase in intravesical pressure induced by carbachol in anesthetized dog
Test: Effect on the increase in intravesical pressure induced by carbachol in anesthetized dog
Assay type: in vivo
Conditions: 0.01 mg/kg injected intravenously 5 minutes before carbachol (1.8 μg/kg); anesthetized female Beagle dogs; N = 5; Before 6.2 ± 1.1; *P < 0.01 vs Before (ANOVA)
Method: Effect on the increase in intravesical pressure induced by carbachol in anesthetized dog
Female Beagle dogs weighing 8.0-15.0 kg were fasted for 24 hours and maintained under halothane anesthesia. A 12F Foley catheter was lubricated with water soluble jelly, inserted into the urethral orifice and advanced approximately 10 cm until the balloon tip was placed well inside the bladder. The balloon was then inflated with 5 ml of room air and catheter slowly withdrawn just part the first resistance that is felt at the bladder neck. Urine was completely drained out through the catheter, and 30 ml of biological saline was infused. The catheter was connected to pressure transducer, and intravesical pressure was continuously recorded. The test compound was injected intravenously at 5 minutes before the administration of carbachol (1.8 μg/kg).

## COC(=O)Nc1ccc(C(CCNC[C@H](O)COc2ccccc2)c2ccc(NC(=O)OC)cc2)cc1 [Test Compound (1), (2S)-1-Phenoxy-3-[3,3-bis[4-(methoxycarbonylamino)-phenyl]propylamino]-2-propanol sulfate (2:1) (crystal Form A)]
  Increase in intravesical pressure (mmHg): 4.9 ± 0.9* mmHg
